Patent publication US7666639B2, “Plant deoxyribonucleoside kinase enzymes and their use” (priority 2002, dated 2010)
One block for each compound: values may come before it.

Key:
[1] = system: Glioblastoma U-118-MG cells transduced with PZG190 (AtdCGK); test: Cell proliferation assay - cytotoxicity (XTT), U-118-MG transduced with PZG190; assay type: cell-based; details: Homo sapiens; U-118-MG PZG190; 96-120 hours of drug exposure
Method: (§1) Two constructs were obtained: AtdCGK (PZG190) and TomdCGK (PZG193). LCXSN alone was used as a control.
(§2) The virus containing medium was subsequently used to transduce the cancer cell lines with a MOI of 5.
(§3) Human breast MCF-7 (ATCC HTB-22) and Glioblastoma U-118-MG (ATCC HTB-15) cancer cells were purchased from the American Type Culture Collection. Cells were cultured in RPMI, E-MEM or D-MEM (Cambrex, Bio Whittaker Cat. No. 12-115-F, 12-611 and 12-741-F) with 10% (v/v) Australian originated fetal calf serum (Cambrex, Bio Whittaker Cat. No. 12-611) and 1 ml/l of Gentamicin (Cambrex, Bio Whittaker Cat. No. 17-518). Cells were grown at 37° C. in a humidified incubator with a gas phase of 5% CO2. […]
(§4) Cells were plated at densities range of 1.500-3.500 cells/well in 96-well plates coated with Poly-L-lysine (Sigma Cat. No. P6282) Gemcitabine (obtained from Orifarm A/S—DK) was added after 24 hours of incubation at 37° C., 5% CO2, and the medium containing the nucleoside analog. […] The IC50 value of the investigated drug/compound was calculated as the mean of these experiments using SigmaPlot®) (SPSS Science, Dyrberg Traiding—DK).
(§5) The sensitivity of the untransduced cells, and of the cells transduced with either the retroviral vector alone ore the vector containing plant kinases for Gemcitabine was determined.
(§6) The cytotoxicity (IC50 value) was determined after 96-120 hours of drug exposure.

[2] = system: KY895 cells transformed with pGEX-2T-TOM-ΔNdCK/dGKΔC; test: LD100 for growth of transformed KY895 on nucleoside analog plates, pGEX-2T-TOM-ΔNdCK/dGKΔC; assay type: cell-based, E. coli; details: transformant pGEX-2T-TOM-ΔNdCK/dGKΔC; M9 plates, 24 hours at 37° C.
Method: (§7) Deoxyribonucleoside kinases are of interest as suicide-genes to be used in gene-mediated therapy of cancer or viral infections. In this example the potential of the plant kinases of the invention to convert different nucleoside analogs are compared to that of the human Herpes simplex virus type 1 thymidine kinase (HSV1-TK) in a bacterial test system.
(§8) The experiment was carried out essentially as described by Knecht et al. [Knecht W, Munch-Petersen B and Piskur J: Identification of residues involved in the specificity and regulation of the highly efficient multisubstrate deoxyribonucleoside kinase from Drosophila melanogaster; J. Mol. Biol. 2000 301 827-837]. Briefly, overnight cultures of transformed KY895 were diluted 200-filed in 10% glyercol and 2 μl drops of the dilutions were spotted on M9 minimal medium plates [Ausubel F, Brent R, Kingston R E, Moore D D, Seidman J G, Smith J A & Struhl K (Eds.): Short protocols in molecular biology; 3rd edition (1995) pp. 1-2, Wiley, USA] supplemented with 0.2% glucose, 40 μg/ml isoleucine, 40 μg/ml valine, 100 μg/ml ampicillin and with or without nucleoside analogs. Growth was inspected visually after 24 hours of incubation at 37° C.

[3] = system: breast MCF-7 cells transduced with PZG190 (AtdCGK); test: Cell proliferation assay - cytotoxicity (XTT), MCF-7 transduced with PZG190; assay type: cell-based, Human
Method: as §1, §2, §3, §4, §5, §6

[4] = system: KY895 cells transformed with pGEX-2T; test: LD100 for growth of transformed KY895 on nucleoside analog plates, pGEX-2T; assay type: cell-based, E. coli; details: transformant pGEX-2T; M9 plates, 24 hours at 37° C.
Method: as §7, §8

[5] = system: KY895 cells transformed with pGEX-2T-TOM-ΔNdCK/dGK; test: LD100 for growth of transformed KY895 on nucleoside analog plates, pGEX-2T-TOM-ΔNdCK/dGK; assay type: cell-based, E. coli
Method: as §7, §8

[6] = system: breast MCF-7 cells, parental; test: Cell proliferation assay - cytotoxicity (XTT), MCF-7 parental; assay type: cell-based; details: Homo sapiens, MCF7, 96-120 hours of drug exposure
Method: (§9) Human breast MCF-7 (ATCC HTB-22) and Glioblastoma U-118-MG (ATCC HTB-15) cancer cells were purchased from the American Type Culture Collection. Cells were cultured in RPMI, E-MEM or D-MEM (Cambrex, Bio Whittaker Cat. No. 12-115-F, 12-611 and 12-741-F) with 10% (v/v) Australian originated fetal calf serum (Cambrex, Bio Whittaker Cat. No. 12-611) and 1 ml/l of Gentamicin (Cambrex, Bio Whittaker Cat. No. 17-518). Cells were grown at 37° C. in a humidified incubator with a gas phase of 5% CO2.
as §4, with “analog. Each experiment was performed in four replicates. Cell survival was assayed after 96-120 hours of drug exposure, by XTT cell proliferation kit (X) kit II, Roche Cat. No. 1 465 015).” for “analog.”
as §5, §6

[7] = system: KY895 cells transformed with pGEX-2T-TOM-dCK/dGK; test: LD100 for growth of transformed KY895 on nucleoside analog plates, pGEX-2T-TOM-dCK/dGK; assay type: cell-based, E. coli
Method: as §7, §8

[8] = system: KY895 cells transformed with pGEX-2T-TOM-dCK/dGKΔC; test: LD100 for growth of transformed KY895 on nucleoside analog plates, pGEX-2T-TOM-dCK/dGKΔC; assay type: cell-based, E. coli; details: transformant pGEX-2T-TOM-dCK/dGKΔC; M9 plates, 24 hours at 37° C.
Method: as §7, §8

[9] = system: KY895 cells transformed with pGEX-2T-HSV-TK; test: LD100 for growth of transformed KY895 on nucleoside analog plates, pGEX-2T-HSV-TK; assay type: cell-based, E. coli; details: transformant pGEX-2T-HSV-TK; M9 plates, 24 hours at 37° C.
Method: as §7, §8

[10] = system: cells transduced with the pLCXSN vector alone; test: Cell proliferation assay - cytotoxicity (XTT), cells transduced with pLCXSN vector alone; assay type: cell-based, Human; details: pLCXSN vector alone versus parental
Method: as §1, §2, §3, §4, §5, §6

[11] = system: Glioblastoma U-118-MG cells, parental; test: Cell proliferation assay - cytotoxicity (XTT), U-118-MG parental; assay type: cell-based; details: Homo sapiens, 96-120 hours of drug exposure
Method: as §9
as §4, with “analog. Each experiment was performed in four replicates. Cell survival was assayed after 96-120 hours of drug exposure, by XTT cell proliferation kit (X) kit II, Roche Cat. No. 1 465 015).” for “analog.”
as §5, §6

[12] = system: breast MCF-7 cells transduced with PZG193 (TomdCGK); test: Cell proliferation assay - cytotoxicity (XTT), MCF-7 transduced with PZG193; assay type: cell-based, Human
Method: as §1, §2, §3, §4, §5, §6

[13] = system: KY895 cells transformed with pGEX-2T-AT-dCK/dGK; test: LD100 for growth of transformed KY895 on nucleoside analog plates, pGEX-2T-AT-dCK/dGK; assay type: cell-based, E. coli
Method: as §7, §8

[14] = system: N-terminally deleted tomato dNK enzyme (TOM-ΔNdCK/dGK); test: Deoxyribonucleoside kinase activity in extract of KY895 transformed with pGEX-2T-TOM-ΔNdCK/dGK; assay type: biochemical, Lycopersicum esculentum; details: for ability to phosphorylate the deoxyribonucleoside (in words): pGEX-2T-TOM-ΔNdCK/dGK
Method: (§10) The E. coli strain KY895 (F^−, tdk-1, ilv) [Knecht W, Munch-Petersen B and Piskur J: Identification of residues involved in the specificity and regulation of the highly efficient multisubstrate deoxyribonucleoside kinase from Drosophila melanogaster; J. Mol. Biol. 2000 301 827-837] was transformed by various expression plasmids using standard techniques. Transformed KY895 strains were grown to an OD600 nm of 0.5-0.6 in LB/Ampicillin (100 μg/ml) medium at 37° C., and protein expression was induced by addition of 100 μM IPTG. The cells were further grown for 4 hours at 25° C. and subsequently harvested by centrifugation.
(§11) Pellets were stored at −80° C. until activity testing. Pellets were submitted to brief sonification in extraction buffer (50 mM Tris/HCl pH 7.5, 1 mM DTT, 10% (v/v) glycerol, 1% (v/v) Triton X-100, protease inhibitor cocktail (Complete™ from Roche Diagnostics).
(§12) Deoxyribonucleoside kinase activities were determined in the KY895 extracts by initial velocity measurements based on four time samples by the DE-81 filter paper assay using tritium-labelled nucleoside substrates. 4 to 20 μg extracts were used in the assays. The assay was done as described by Munch-Petersen et al. [Munch-Petersen, B., Knecht, W, Lenz, C., Sondergaard, L. & Piskur, J: Functional expression of a multisubstrate deoxyribonucleoside kinase from Drosophila melanogaster and its C-terminal deletion mutants; J. Biol. Chem. 2000 275 6673-6679].
(§13) The protein concentration was determined according to Bradford with BSA as standard protein [Bradford M M: A rapid and sensitive method for the quantitation of microgram quantities of protein utilizing the principle of protein-dye binding; Anal. Biochem. 1976 72 248-254]. SDS-PAGE was done according to the procedure of Laemmli [Laemmli U K: Cleavage of structural proteins during the assembly of the head of bacteriophage T4; Nature 1970 227 680-685], and proteins were visualized by Coomassie staining to verify recombinant protein expression.
(§14) The four natural deoxyribonucleosides were tested at a fixed concentration of 100 μM. The highest specific activity in each extract was set to 100%.

[15] = system: Arabidopsis thaliana dNK enzyme (AT-dCK/dGK); test: Deoxyribonucleoside kinase activity in extract of KY895 transformed with pGEX-2T-AT-dCK/dGK; assay type: biochemical; details: for ability to phosphorylate the deoxyribonucleoside (in words): pGEX-2T-AT-dCK/dGK
Method: (§15) Transformed KY895 strains were grown to an OD600 nm of 0.5-0.6 in LB/Ampicillin (100 μg/ml) medium at 37° C., and protein expression was induced by addition of 100 μM IPTG. The cells were further grown for 4 hours at 25° C. and subsequently harvested by centrifugation.
as §11
(§16) Deoxyribonucleoside kinase activities were determined in the KY895 extracts by initial velocity measurements based on four time samples by the DE-81 filter paper assay using tritium-labelled nucleoside substrates. 4 to 20 μg extracts were used in the assays.
as §14

[16] = system: C-terminally deleted tomato dNK enzyme (TOM-dCK/dGKΔC); test: Deoxyribonucleoside kinase activity in extract of KY895 transformed with pGEX-2T-TOM-dCK/dGKΔC; assay type: biochemical, Lycopersicum esculentum; details: for Deoxyribonucleoside kinase activity (relative): highest specific activity in extract = 100%
Method: as §10, §11, §12, §13, §14

[17] = system: tomato dNK enzyme (TOM-dCK/dGK); test: Deoxyribonucleoside kinase activity in extract of KY895 transformed with pGEX-2T-TOM-dCK/dGK; assay type: biochemical, Lycopersicum esculentum; details: for ability to phosphorylate the deoxyribonucleoside (in words): pGEX-2T-TOM-dCK/dGK
Method: as §15, §11, §16, §14

[18] = extract of pGEX-2T-TOM-dCK/dGKΔC transformant, substrate 100 μM

SMILES: Nc1ccn([C@@H]2O[C@H](CO)[C@@H](O)C2(F)F)c(=O)n1 [dFdC, 2′,2′-difluorodeoxycytidine]
- IC50 [1]: 0.0003 µM
- LD100 for growth of transformed KY895 cells [2]: 100 µM
- IC50 ([3]; Homo sapiens, MCF7, MCF-7 PZG190, 96-120 hours of drug exposure): 0.5 µM
- Sensitivity factor ([3]; MCF-7 PZG190 compared to the parental cell line): 6-fold
- LD100 for growth of transformed KY895 cells [4]: 100 µM
- killed at fold lower concentrations than cells transformed with pGEX-2T-HSV-TK or pGEX-2T ([5]; KY895 with expression plasmid for TOM-ΔNdCK/dGK): 10 fold
- LD100 for growth of transformed KY895 cells ([5]; transformant pGEX-2T-TOM-ΔNdCK/dGK, M9 plates, 24 hours at 37° C.): 10 µM
- IC50 [6]: 3.12 µM
- killed at fold lower concentrations than cells transformed with pGEX-2T-HSV-TK or pGEX-2T ([7]; KY895 with expression plasmid for TOM-dCK/dGK): 10 fold
- LD100 for growth of transformed KY895 cells ([7]; transformant pGEX-2T-TOM-dCK/dGK, M9 plates, 24 hours at 37° C.): 10 µM
- LD100 for growth of transformed KY895 cells [8]: 100 µM
- LD100 for growth of transformed KY895 cells [9]: 100 µM
- difference in sensitivity between the parental cell line and cells transduced with the pLCXSN vector alone [10]: less than 1 fold
- IC50 [11]: 0.0062 µM
- IC50 ([12]; Homo sapiens, MCF7, MCF-7 PZG193, 96-120 hours of drug exposure): 0.403 µM
- Sensitivity factor ([12]; MCF-7 PZG193 compared to the parental cell line): 8-fold
- LD100 fold lower than that of HSV1-TK ([13]; KY895 with AT-dCK/dGK versus HSV1-TK): 10000 fold
- LD100 for growth of transformed KY895 cells ([13]; transformant pGEX-2T-AT-dCK/dGK, M9 plates, 24 hours at 37° C.): 0.01 µM

- specific activity corresponding to 100% ([14]; extract of pGEX-2T-TOM-ΔNdCK/dGK transformant, substrate 100 μM): (0.32) mU/mg
- Deoxyribonucleoside kinase activity (relative) ([14]; extract of pGEX-2T-TOM-ΔNdCK/dGK transformant, substrate 100 μM, highest specific activity in extract = 100%): 100%
- ability to phosphorylate the deoxyribonucleoside (in words) [14]: able to phosphorylate
- Deoxyribonucleoside kinase activity (relative) ([15]; extract of pGEX-2T-AT-dCK/dGK transformant, substrate 100 μM, highest specific activity in extract = 100%): 91%
- ability to phosphorylate the deoxyribonucleoside (in words) [15]: able to phosphorylate
- Deoxyribonucleoside kinase activity (relative) [16, 18]: 74%
- specific activity corresponding to 100% ([17]; extract of pGEX-2T-TOM-dCK/dGK transformant, substrate 100 μM): (3.3) mU/mg
- Deoxyribonucleoside kinase activity (relative) ([17]; extract of pGEX-2T-TOM-dCK/dGK transformant, substrate 100 μM, highest specific activity in extract = 100%): 100%
- ability to phosphorylate the deoxyribonucleoside (in words) [17]: able to phosphorylate
SMILES: Nc1nc2c(ncn2[C@H]2C[C@H](O)[C@@H](CO)O2)c(=O)[nH]1 [dGuo, deoxyguanosine]

- ability to phosphorylate the deoxyribonucleoside (in words) [14]: not
- ability to phosphorylate the deoxyribonucleoside (in words) [15]: not
- specific activity corresponding to 100% [16, 18]: (0.27) mU/mg
- Deoxyribonucleoside kinase activity (relative) [16, 18]: 100%
- substrate conversion (in words) ([16]; pGEX-2T-TOM-dCK/dGKΔC): fastest converted substrate
- ability to phosphorylate the deoxyribonucleoside (in words) [17]: not
SMILES: Cc1cn([C@H]2C[C@H](O)[C@@H](CO)O2)c(=O)[nH]c1=O [dThd, thymidine]
